Assay results as given in patent publication US9833497B2, “Human originated EGF domain proteins and use of the same” (CHENGDU SOURCEBIO LIMITED-LIABILITY COMPANY, priority 2013, dated 2017).

Columns and labels:
Type in all cases: cell-based
E. coli BL21 = assay: MIC against Gram-negative bacteria: E. coli BL21; details: for MIC against E. coli BL21 / MIC (μg/mL) E. coli BL21: 5×10^5 CFU/mL
Summary of the method: (§1)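 Inocula prepared by growing LB cultures at 37° C to 0.5 McFarland, centrifuging at 4000×g, and resuspending in fresh medium. Final density 5×10^5 CFU/mL per well with two-fold dilutions of purified EGF domain protein; shaking incubation at 37° C.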

Klebsiella pneumonia = assay: MIC against Gram-negative bacteria: Klebsiella pneumonia; details: for MIC against K. pneumonia / MIC (μg/mL) K. pneumonia: 5×10^5 CFU/mL
Summary of the method: as §1

Citrobacter diversus = assay: MIC against Gram-negative bacteria: Citrobacter diversus; details: for MIC against C. diversus / MIC (μg/mL) C. diversus: 5×10^5 CFU/mL
Summary of the method: as §1

Pseudomonas aeruginosa = assay: MIC against Gram-negative bacteria: Pseudomonas aeruginosa; details: for MIC against P. aeruginosa / MIC (μg/mL) P. aeruginosa: 5×10^5 CFU/mL
Summary of the method: as §1

Proteus vulgaris = assay: MIC against Gram-negative bacteria: Proteus vulgaris; details: for MIC against P. vulgaris / MIC (μg/mL) P. vulgaris: 5×10^5 CFU/mL
Summary of the method: as §1

Enterobacter cloacae = assay: MIC against Gram-negative bacteria: Enterobacter cloacae; details: for MIC against E. cloacae / MIC (μg/mL) E. cloacae: 5×10^5 CFU/mL
Summary of the method: as §1

Aeromonas hydrophila = assay: MIC against Gram-negative bacteria: Aeromonas hydrophila; details: for MIC against A. hydrophila / MIC (μg/mL) A. hydrophila: 5×10^5 CFU/mL
Summary of the method: as §1

Moraxella catarrhalis = assay: MIC against Gram-negative bacteria: Moraxella catarrhalis; details: for MIC against M. catarrhalis / MIC (μg/mL) M. catarrhalis: 5×10^5 CFU/mL
Summary of the method: as §1

Proteus mirabilis = assay: MIC against Gram-negative bacteria: Proteus mirabilis; details: for MIC against P. mirabilis / MIC (μg/mL) P. mirabilis: 5×10^5 CFU/mL
Summary of the method: as §1

E. coli DH5α = assay: Antibacterial activity: MIC and growth curve against E. coli DH5α in 96-well plate; details: minimal inhibitory concentration against E. coli DH5α; 96-well plate, 5×10^5 CFU/mL, 37° C., judged after 8 h
Summary of the method: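 Log-phase bacteria (OD600 ~0.5) resuspended in LB at 5×10^5 CFU/mL, exposed to recombinant protein at 50, 25, 12.5 μg/mL final in triplicate, 37 °C shaking at 175 rpm. OD600 read every 30 min; MIC is lowest concentration showing no growth.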

Serratia marcescens = assay: MIC against Gram-negative bacteria: Serratia marcescens; details: for MIC against S. marcescens / MIC (μg/mL) S. marcescens: 5×10^5 CFU/mL
Summary of the method: as §1

[1] = E. coli BL21, 10 h cultivation at 37° C.
[2] = K. pneumonia, 10 h cultivation at 37° C.
[3] = C. diversus, 10 h cultivation at 37° C.
[4] = P. aeruginosa, 10 h cultivation at 37° C.
[5] = P. vulgaris, 10 h cultivation at 37° C.
[6] = E. cloacae, 10 h cultivation at 37° C.
[7] = A. hydrophila, 10 h cultivation at 37° C.
[8] = M. catarrhalis, 10 h cultivation at 37° C.
[9] = P. mirabilis, 10 h cultivation at 37° C.
[10] = S. marcescens, 10 h cultivation at 37° C.
[11] = E. coli BL21, 96-well plate, 37° C., 10 h
[12] = Klebsiella pneumonia, 96-well plate, 37° C., 10 h
[13] = Citrobacter diversus, 96-well plate, 37° C., 10 h
[14] = Pseudomonas aeruginosa, 96-well plate, 37° C., 10 h
[15] = Proteus vulgaris, 96-well plate, 37° C., 10 h
[16] = Enterobacter cloacae, 96-well plate, 37° C., 10 h
[17] = Aeromonas hydrophila, 96-well plate, 37° C., 10 h
[18] = Moraxella catarrhalis, 96-well plate, 37° C., 10 h
[19] = Proteus mirabilis, 96-well plate, 37° C., 10 h
[20] = Serratia marcescens, 96-well plate, 37° C., 10 h

PRT991 (RGLLCGSFPEPCANGGTCLSLSLGQGTCQCAPGFLGETCQ; listed as Homo sapiens)
MIC (E. coli BL21; [1]): 25 µg/mL | MIC (Klebsiella pneumonia; [2]): 25 µg/mL | MIC (Citrobacter diversus; [3]): 50 µg/mL | MIC (Pseudomonas aeruginosa; [4]): 12.5 µg/mL | MIC (Proteus vulgaris; [5]): 12.5 µg/mL | MIC (Enterobacter cloacae; [6]): 50 µg/mL | MIC (Aeromonas hydrophila; [7]): 12.5 µg/mL | MIC (Moraxella catarrhalis; [8]): 12.5 µg/mL | MIC (Proteus mirabilis; [9]): 25 µg/mL | MIC (E. coli DH5α): 50 µg/mL | MIC (Serratia marcescens; [10]): 25 µg/mL

PRT1378 (AIQTCPGDCRGRGECHDGSCVCKDGYAGEDCG; listed as Homo sapiens)
MIC against E. coli BL21 (E. coli BL21; [1]): 25 µg/mL | MIC against K. pneumonia (Klebsiella pneumonia; Klebsiella pneumonia, 10 h cultivation at 37° C.): 25 µg/mL | MIC against C. diversus (Citrobacter diversus; Citrobacter diversus, 10 h cultivation at 37° C.): 25 µg/mL | MIC against P. aeruginosa (Pseudomonas aeruginosa; Pseudomonas aeruginosa, 10 h cultivation at 37° C.): 12.5 µg/mL | MIC against P. vulgaris (Proteus vulgaris; Proteus vulgaris, 10 h cultivation at 37° C.): 12.5 µg/mL | MIC against E. cloacae (Enterobacter cloacae; Enterobacter cloacae, 10 h cultivation at 37° C.): 12.5 µg/mL | MIC against A. hydrophila (Aeromonas hydrophila; Aeromonas hydrophila, 10 h cultivation at 37° C.): 12.5 µg/mL | MIC against M. catarrhalis (Moraxella catarrhalis; Moraxella catarrhalis, 10 h cultivation at 37° C.): 12.5 µg/mL | MIC against P. mirabilis (Proteus mirabilis; Proteus mirabilis, 10 h cultivation at 37° C.): 25 µg/mL | MIC (E. coli DH5α): 50 µg/mL | MIC against S. marcescens (Serratia marcescens; Serratia marcescens, 10 h cultivation at 37° C.): 25 µg/mL

PRT1334 (PINPCLRKICHPHAHCTYLGPNRHSCTCQEGYRGDGQVCL; listed as Homo sapiens)
MIC against E. coli BL21 (E. coli BL21; [11]): 12.5 µg/mL | MIC against K. pneumonia (Klebsiella pneumonia; [12]): 12.5 µg/mL | MIC against C. diversus (Citrobacter diversus; [13]): 50 µg/mL | MIC against P. aeruginosa (Pseudomonas aeruginosa; [14]): 50 µg/mL | MIC against P. vulgaris (Proteus vulgaris; [15]): 25 µg/mL | MIC against E. cloacae (Enterobacter cloacae; [16]): 50 µg/mL | MIC against A. hydrophila (Aeromonas hydrophila; [17]): 12.5 µg/mL | MIC against M. catarrhalis (Moraxella catarrhalis; [18]): 25 µg/mL | MIC against P. mirabilis (Proteus mirabilis; [19]): 100 µg/mL | MIC (E. coli DH5α): 12.5 µg/mL | MIC against S. marcescens (Serratia marcescens; [20]): 25 µg/mL

PRT1028 (DENECATGFHRCGPNSVCINLPGSYRCECRSGYEFADDRHTCI; listed as Homo sapiens)
MIC (E. coli BL21; [1]): 50 µg/mL | MIC (Klebsiella pneumonia; [2]): 50 µg/mL | MIC (Citrobacter diversus; [3]): 12.5 µg/mL | MIC (Pseudomonas aeruginosa; [4]): 25 µg/mL | MIC (Proteus vulgaris; [5]): 25 µg/mL | MIC (Enterobacter cloacae; [6]): 25 µg/mL | MIC (Aeromonas hydrophila; [7]): 25 µg/mL | MIC (Moraxella catarrhalis; [8]): 25 µg/mL | MIC (Proteus mirabilis; [9]): 50 µg/mL | MIC (E. coli DH5α): 12.5 µg/mL | MIC (Serratia marcescens; [10]): 50 µg/mL

PRT760 (KLDSCALGDHGCEHSCVSSEDSFVCQCFEGYILREDGKTCR; listed as Homo sapiens)
MIC (μg/mL) E. coli BL21 (E. coli BL21; [1]): 25 µg/mL | MIC (μg/mL) K. pneumonia (Klebsiella pneumonia; [2]): 50 µg/mL | MIC (μg/mL) C. diversus (Citrobacter diversus; [3]): 12.5 µg/mL | MIC (μg/mL) P. aeruginosa (Pseudomonas aeruginosa; [4]): 12.5 µg/mL | MIC (μg/mL) P. vulgaris (Proteus vulgaris; [5]): 50 µg/mL | MIC (μg/mL) E. cloacae (Enterobacter cloacae; [6]): 12.5 µg/mL | MIC (μg/mL) A. hydrophila (Aeromonas hydrophila; [7]): 50 µg/mL | MIC (μg/mL) M. catarrhalis (Moraxella catarrhalis; [8]): 50 µg/mL | MIC (μg/mL) P. mirabilis (Proteus mirabilis; [9]): 12.5 µg/mL | MIC (E. coli DH5α): 50 µg/mL | MIC (μg/mL) S. marcescens (Serratia marcescens; [10]): 12.5 µg/mL

PRT92 (VSDLCATGDHDCEQVCISSPGSYTCACHEGFTLNSDGKTCN; listed as Homo sapiens)
MIC (μg/mL) E. coli BL21 (E. coli BL21; [11]): 12.5 µg/mL | MIC (μg/mL) K. pneumonia (Klebsiella pneumonia; [12]): 12.5 µg/mL | MIC (μg/mL) C. diversus (Citrobacter diversus; [13]): 12.5 µg/mL | MIC (μg/mL) P. aeruginosa (Pseudomonas aeruginosa; [14]): 50 µg/mL | MIC (μg/mL) P. vulgaris (Proteus vulgaris; [15]): 25 µg/mL | MIC (μg/mL) E. cloacae (Enterobacter cloacae; [16]): 50 µg/mL | MIC (μg/mL) A. hydrophila (Aeromonas hydrophila; [17]): 25 µg/mL | MIC (μg/mL) M. catarrhalis (Moraxella catarrhalis; [18]): 25 µg/mL | MIC (μg/mL) P. mirabilis (Proteus mirabilis; [19]): 50 µg/mL | MIC (E. coli DH5α): 50 µg/mL | MIC (μg/mL) S. marcescens (Serratia marcescens; [20]): 12.5 µg/mL

PRT549 (CDCSGNGDPNLLFSDCDPLTGACRGCLRHTTGPRCEICAPGFYGNALLPGNCTR; listed as Homo sapiens)
MIC against E. coli BL21 (E. coli BL21; 96-well plate, 37° C., 10 h): 50 µg/mL | MIC against K. pneumonia (Klebsiella pneumonia; 96-well plate, 37° C., 10 h): 50 µg/mL | MIC against C. diversus (Citrobacter diversus; 96-well plate, 37° C., 10 h): 12.5 µg/mL | MIC against P. aeruginosa (Pseudomonas aeruginosa; 96-well plate, 37° C., 10 h): 12.5 µg/mL | MIC against P. vulgaris (Proteus vulgaris; 96-well plate, 37° C., 10 h): 25 µg/mL | MIC against E. cloacae (Enterobacter cloacae; 96-well plate, 37° C., 10 h): 12.5 µg/mL | MIC against A. hydrophila (Aeromonas hydrophila; 96-well plate, 37° C., 10 h): 50 µg/mL | MIC against M. catarrhalis (Moraxella catarrhalis; 96-well plate, 37° C., 10 h): 25 µg/mL | MIC against P. mirabilis (Proteus mirabilis; 96-well plate, 37° C., 10 h): 12.5 µg/mL | MIC (E. coli DH5α): 12.5 µg/mL | MIC against S. marcescens (Serratia marcescens; 96-well plate, 37° C., 10 h): 12.5 µg/mL
